According to PubChem BioAssay AID1963429 (Molecular Pharmacology Branch, DTP, NCI, 2024):
pIC50: −log10 of the molar value. Values joined by “and” are separate entries in the source; they are usually repeats but may differ in a detail not shown here. Identical values can stand only once.

Tested on: 126254-015-R-J1-PDC complex spheroid growth, % test/control
Assay: Anticancer human tumor 126254-015-R-J1-PDC patient-derived soft tissue sarcoma cell line growth inhibition [Asc]
Conditions: for viability, T/C: stronger effect = lower value
Summary of the method: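 Concentration series start at each agent's clinical Cmax, or at 10 microM when none is established, and drop in half-log steps; agents are applied alone or together to complex spheroids built with HUVEC and hMSC.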

[1] = curve of first compound, second compound 0.1 µM
[2] = curve of first compound, second compound 0.316 µM
[3] = curve of first compound, second compound 1 µM
[4] = curve of first compound, second compound 3.16 µM
[5] = curve of first compound, second compound 10 µM
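Also: spheroids exposed to compound for seven days.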
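For viability, T/C in this document: 100% = DMSO vehicle control wells.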

CCN1C(C(=O)NC23CCC(C(=O)O)(CC2)CC3)C(c2cccc(Cl)c2F)C2(C(=O)Nc3cc(Cl)ccc32)C12CCCCC2 (configuration not stated) + Cc1c(S(C)(=O)=O)c(-c2cc(F)cc(N3CCN(c4ccc(NS(=O)(=O)c5ccc(NC(CCN6CCC(C(=O)OCCCP(=O)(O)O)CC6)CSc6ccccc6)c(S(=O)(=O)C(F)(F)F)c5)cc4)CC3)c2)c(-c2ccc(Cl)cc2)n1C(C)C
pIC50 [1]: < 5.52
pIC50 [2]: < 5.52
pIC50 [3]: < 5.52
pIC50 [4]: < 5.52
pIC50 [5]: < 5.52
viability, T/C (second compound 0.1 µM, first compound 0.00949 µM): 90.7%
viability, T/C (second compound 0.1 µM, first compound 0.03 µM): 85.1%
viability, T/C (second compound 0.1 µM, first compound 0.0949 µM): 91.7%
viability, T/C (second compound 0.1 µM, first compound 0.3 µM): 88.6%
viability, T/C (second compound 0.1 µM, first compound 0.949 µM): 93.9%
viability, T/C (second compound 0.1 µM, first compound 3 µM): 88.3%
viability, T/C (second compound 0.316 µM, first compound 0.00949 µM): 83.3%
viability, T/C (second compound 0.316 µM, first compound 0.03 µM): 82.4%
viability, T/C (second compound 0.316 µM, first compound 0.0949 µM): 81.9%
viability, T/C (second compound 0.316 µM, first compound 0.3 µM): 79.7%
viability, T/C (second compound 0.316 µM, first compound 0.949 µM): 74.9%
viability, T/C (second compound 0.316 µM, first compound 3 µM): 76.9%
viability, T/C (second compound 1 µM, first compound 0.00949 µM): 86.1%
viability, T/C (second compound 1 µM, first compound 0.03 µM): 84.4%
viability, T/C (second compound 1 µM, first compound 0.0949 µM): 87.1%
viability, T/C (second compound 1 µM, first compound 0.3 µM): 79.4%
viability, T/C (second compound 1 µM, first compound 0.949 µM): 82.7%
viability, T/C (second compound 1 µM, first compound 3 µM): 71.4%
viability, T/C (second compound 3.16 µM, first compound 0.00949 µM): 76%
viability, T/C (second compound 3.16 µM, first compound 0.03 µM): 83.8%
viability, T/C (second compound 3.16 µM, first compound 0.0949 µM): 77.2%
viability, T/C (second compound 3.16 µM, first compound 0.3 µM): 78.7%
viability, T/C (second compound 3.16 µM, first compound 0.949 µM): 81.3%
viability, T/C (second compound 3.16 µM, first compound 3 µM): 70.5%
viability, T/C (second compound 10 µM, first compound 0.00949 µM): 82.3%
viability, T/C (second compound 10 µM, first compound 0.03 µM): 86.5%
viability, T/C (second compound 10 µM, first compound 0.0949 µM): 88.8%
viability, T/C (second compound 10 µM, first compound 0.3 µM): 82.5%
viability, T/C (second compound 10 µM, first compound 0.949 µM): 75.5%
viability, T/C (second compound 10 µM, first compound 3 µM): 72.2%

C=C(F)C(=O)N1CCN(c2nc(OCC3CCCN3C)nc3c2CCN(c2cccc4cccc(Cl)c24)C3)CC1CC#N (configuration not stated) + Cc1c(S(C)(=O)=O)c(-c2cc(F)cc(N3CCN(c4ccc(NS(=O)(=O)c5ccc(NC(CCN6CCC(C(=O)OCCCP(=O)(O)O)CC6)CSc6ccccc6)c(S(=O)(=O)C(F)(F)F)c5)cc4)CC3)c2)c(-c2ccc(Cl)cc2)n1C(C)C
pIC50 [1]: 5.73
pIC50 [2]: 5.86
pIC50 [3]: 5.87
pIC50 [4]: 6.11
pIC50 [5]: 5.86
viability, T/C (second compound 0.1 µM, first compound 0.0316 µM): 87.2%
viability, T/C (second compound 0.1 µM, first compound 0.1 µM): 97.2%
viability, T/C (second compound 0.1 µM, first compound 0.316 µM): 89.6%
viability, T/C (second compound 0.1 µM, first compound 1 µM): 76.5%
viability, T/C (second compound 0.1 µM, first compound 3.16 µM): 27.4%
viability, T/C (second compound 0.1 µM, first compound 10 µM): 0.18%
viability, T/C (second compound 0.316 µM, first compound 0.0316 µM): 83%
viability, T/C (second compound 0.316 µM, first compound 0.1 µM): 91.2%
viability, T/C (second compound 0.316 µM, first compound 0.316 µM): 80.2%
viability, T/C (second compound 0.316 µM, first compound 1 µM): 61%
viability, T/C (second compound 0.316 µM, first compound 3.16 µM): 22.8%
viability, T/C (second compound 0.316 µM, first compound 10 µM): 0.13%
viability, T/C (second compound 1 µM, first compound 0.0316 µM): 83.5%
viability, T/C (second compound 1 µM, first compound 0.1 µM): 66.3%
viability, T/C (second compound 1 µM, first compound 0.316 µM): 76.3%
viability, T/C (second compound 1 µM, first compound 1 µM): 57.7%
viability, T/C (second compound 1 µM, first compound 3.16 µM): 27.2%
viability, T/C (second compound 1 µM, first compound 10 µM): 0.14%
viability, T/C (second compound 3.16 µM, first compound 0.0316 µM): 88.3%
viability, T/C (second compound 3.16 µM, first compound 0.1 µM): 75%
viability, T/C (second compound 3.16 µM, first compound 0.316 µM): 61.5%
viability, T/C (second compound 3.16 µM, first compound 1 µM): 51.7%
viability, T/C (second compound 3.16 µM, first compound 3.16 µM): 20.5%
viability, T/C (second compound 3.16 µM, first compound 10 µM): 0.13%
viability, T/C (second compound 10 µM, first compound 0.0316 µM): 79.2%
viability, T/C (second compound 10 µM, first compound 0.1 µM): 77.5%
viability, T/C (second compound 10 µM, first compound 0.316 µM): 77.8%
viability, T/C (second compound 10 µM, first compound 1 µM): 62.4%
viability, T/C (second compound 10 µM, first compound 3.16 µM): 18.5%
viability, T/C (second compound 10 µM, first compound 10 µM): 0.2%

C=C(F)C(=O)N1CCN(c2nc(OCC3CCCN3C)nc3c2CCN(c2cccc4cccc(Cl)c24)C3)CC1CC#N (configuration not stated)
viability, T/C (compound 0.0316 µM): 92% and 107% and 106%
viability, T/C (compound 0.1 µM): 96.8% and 102% and 95.5%
viability, T/C (compound 0.316 µM): 94% and 110% and 105%
viability, T/C (compound 1 µM): 92.7% and 106% and 93.5%
viability, T/C (compound 3.16 µM): 37.7% and 43.4% and 69.6%
viability, T/C (compound 10 µM): 0.22% and 0.29% and 0.24%
pIC50 (curve of compound): 5.61 and 5.55 and 5.36
